Measured values taken from PMC12749166, “Fragment-based drug design of a bacterial kinase inhibitor capable of increasing the antibiotic sensitivity of clinical isolates” (Communications Chemistry, 2025).

Experiments:
[1] = system: APH(3’)-Ic; assay type: biochemical, A. baumannii; settings: 100 µM of 83
[2] = target: T1, APH(3’)-IIa (Klebsiella pneumoniae, UniProt P00552); test: Isothermal Titration Calorimetry; assay type: binding, K. pneumoniae
T1 construct: His-tag (inferred from HisTrap purification); made in house; host or cells: E. coli BL21
Method: (§1) ITC experiments were performed on three different machines: a MicroCal VP-ITC (GE Healthcare), a MicroCal PEAQ-ITC (Malvern), or a MicroCal iTC200 (Malvern). The architecture and principles are similar for the three different systems. The experiments were carried out in Buffer HEPES at 25 °C. Titrations consisted of twenty injections of 1.5 µL inhibitors, every 120 seconds, into the measuring cell using the injection syringe rotating at 750 rpm. The data were analyzed using the MicroCal PEAQ-ITC software (v. 1.52, Malvern) using the single-site binding model to fit the raw data. The standard error of the Kd value was determined from measurements made on distinct samples (n indicated in the text).

[3] = system: S. aureus C0032; test: Checkerboard assay of 83 with kanamycin A; assay type: cell-based; settings: for MIC of kanamycin A: 0.125 µg mL^−1 imipenem, 18 h at 37 °C; for checkerboard well reading (growth): Supp. Figure 3 C
[4] = target: T2, APH(3’)-IIb (Pseudomonas aeruginosa, UniProt Q9HWR2, M95L); test: Isothermal Titration Calorimetry; assay type: binding, P. aeruginosa
T2 sequence (Q9HWR2 1-268 M95L): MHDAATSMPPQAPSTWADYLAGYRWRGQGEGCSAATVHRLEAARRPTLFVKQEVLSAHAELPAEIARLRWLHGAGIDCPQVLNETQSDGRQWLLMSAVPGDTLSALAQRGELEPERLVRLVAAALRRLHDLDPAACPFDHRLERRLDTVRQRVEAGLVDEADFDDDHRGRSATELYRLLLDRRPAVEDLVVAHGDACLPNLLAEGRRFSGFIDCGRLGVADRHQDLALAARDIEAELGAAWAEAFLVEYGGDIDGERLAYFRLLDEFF
Method: as §1

[5] = target: T3, APH(3’)-Ib (Escherichia coli, UniProt P14509); test: biochemical; set-up: species or system E. coli and K. pneumoniae
T3 construct: His-tag (inferred from HisTrap purification); made in house; host or cells: E. coli BL21

[6] = target: T2, APH(3’)-IIb; test: biochemical
Method: The reaction mixture consists of the APH and its substrates, as well as a potential inhibitor for inhibition measurements. Reactions were initiated by adding the ATP solution supplemented or not with the inhibitor, in a thermostated beaker containing the APH. […] The reaction was stopped at several time points by adding 80 µL of the enzymatic reaction mixture from the beaker to 40 µL of 10% perchloric acid (PCA) in an Eppendorf tube. Samples were then centrifuged for 30 min at 12750 rpm and 8 °C. 100 µL of the supernatant was then mixed with 900 µL of mobile phase (250 mM NaH2PO4, 50% Acetonitrile, pH 5.5) supplemented with KOH to readjust the pH to 5.5 before injection. […] 100 µL of samples were injected on a SAX PartiSphere column (AIT France) at a flow rate of 1 mL min^−1. ATP and ADP peaks were integrated, and the area under the peaks was calculated using OpenLab CDS software (v. ChemStation, Agilent). The kss values were then measured using linear regression in GraFit software and IC50 determined by fitting with a hyperbola the percentage of inhibition as a function of inhibitor concentration. The standard error of the IC50 value was determined in the GraFit software based on the fitting of the experimental data.

[7] = target: APH(2”)-IVa (Enterococcus casseliflavus, UniProt O68183); test: biochemical
[8] = system: S. aureus C0032; test: Bacterial growth kinetics over 24 h; assay type: cell-based; settings: for Increase of latency: 500 µM 83

APH(2”)-IVa, sequence (O68183 1-301): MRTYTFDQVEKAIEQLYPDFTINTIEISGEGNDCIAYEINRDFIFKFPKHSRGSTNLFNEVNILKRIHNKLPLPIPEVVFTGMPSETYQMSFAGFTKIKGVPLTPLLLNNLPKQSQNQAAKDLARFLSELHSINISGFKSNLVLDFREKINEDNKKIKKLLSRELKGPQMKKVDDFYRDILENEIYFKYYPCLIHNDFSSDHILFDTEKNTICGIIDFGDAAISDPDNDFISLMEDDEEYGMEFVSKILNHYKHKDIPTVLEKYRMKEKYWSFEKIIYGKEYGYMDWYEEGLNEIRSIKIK
T1 sequence (P00552 whole entry): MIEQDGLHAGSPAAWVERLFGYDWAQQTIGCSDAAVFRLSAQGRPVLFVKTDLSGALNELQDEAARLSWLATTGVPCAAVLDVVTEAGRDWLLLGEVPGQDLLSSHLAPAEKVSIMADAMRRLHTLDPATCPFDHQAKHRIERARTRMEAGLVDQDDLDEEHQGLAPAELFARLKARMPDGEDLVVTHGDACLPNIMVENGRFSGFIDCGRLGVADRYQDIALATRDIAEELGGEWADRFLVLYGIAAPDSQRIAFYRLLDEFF
T3 sequence (P14509 whole entry): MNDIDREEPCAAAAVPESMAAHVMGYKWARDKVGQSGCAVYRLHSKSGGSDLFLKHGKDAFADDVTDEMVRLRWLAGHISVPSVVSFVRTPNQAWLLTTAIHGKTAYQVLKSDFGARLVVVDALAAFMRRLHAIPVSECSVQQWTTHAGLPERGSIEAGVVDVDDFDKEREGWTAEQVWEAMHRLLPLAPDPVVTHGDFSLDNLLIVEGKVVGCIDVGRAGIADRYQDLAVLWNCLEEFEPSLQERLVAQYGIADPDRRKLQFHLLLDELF

Clc1cnc2[nH]ccc2c1-c1ccn[nH]1 [Compound 83]
Inhibition (%) [1]: 35% | Kd [2]: 1250 nM | ΔH ([2]; ITC): -13.1 kcal/mol | MIC of kanamycin A ([3]; [83] 2 µg mL^−1): 4096 µg/mL | MIC of kanamycin A ([3]; [83] 4 µg mL^−1): 4096 µg/mL | MIC of kanamycin A ([3]; [83] 8 µg mL^−1): 4096 µg/mL | MIC of kanamycin A ([3]; [83] 16 µg mL^−1): 4096 µg/mL | MIC of kanamycin A ([3]; [83] 32 µg mL^−1): 2048 µg/mL | MIC of kanamycin A ([3]; [83] 64 µg mL^−1): 2048 µg/mL | MIC of kanamycin A ([3]; [83] 128 µg mL^−1): 2048 µg/mL | checkerboard well reading (growth) ([3]; 83 1 µg.mL-1, kanamycin A 0 µg.mL-1): 0.496 | checkerboard well reading (growth) ([3]; 83 1 µg.mL-1, kanamycin A 2 µg.mL-1): 0.320 | checkerboard well reading (growth) ([3]; 83 1 µg.mL-1, kanamycin A 4 µg.mL-1): 0.317 | checkerboard well reading (growth) ([3]; 83 1 µg.mL-1, kanamycin A 8 µg.mL-1): 0.300 | checkerboard well reading (growth) ([3]; 83 1 µg.mL-1, kanamycin A 16 µg.mL-1): 0.287 | checkerboard well reading (growth) ([3]; 83 1 µg.mL-1, kanamycin A 32 µg.mL-1): 0.279 | checkerboard well reading (growth) ([3]; 83 1 µg.mL-1, kanamycin A 64 µg.mL-1): 0.255 | checkerboard well reading (growth) ([3]; 83 1 µg.mL-1, kanamycin A 128 µg.mL-1): 0.294 | checkerboard well reading (growth) ([3]; 83 2 µg.mL-1, kanamycin A 0 µg.mL-1): 0.442 | checkerboard well reading (growth) ([3]; 83 2 µg.mL-1, kanamycin A 2 µg.mL-1): 0.315 | checkerboard well reading (growth) ([3]; 83 2 µg.mL-1, kanamycin A 4 µg.mL-1): 0.311 | checkerboard well reading (growth) ([3]; 83 2 µg.mL-1, kanamycin A 8 µg.mL-1): 0.299 | checkerboard well reading (growth) ([3]; 83 2 µg.mL-1, kanamycin A 16 µg.mL-1): 0.295 | checkerboard well reading (growth) ([3]; 83 2 µg.mL-1, kanamycin A 32 µg.mL-1): 0.268 | checkerboard well reading (growth) ([3]; 83 2 µg.mL-1, kanamycin A 64 µg.mL-1): 0.246 | checkerboard well reading (growth) ([3]; 83 2 µg.mL-1, kanamycin A 128 µg.mL-1): 0.245 | checkerboard well reading (growth) ([3]; 83 4 µg.mL-1, kanamycin A 0 µg.mL-1): 0.451 | checkerboard well reading (growth) ([3]; 83 4 µg.mL-1, kanamycin A 2 µg.mL-1): 0.356 | checkerboard well reading (growth) ([3]; 83 4 µg.mL-1, kanamycin A 4 µg.mL-1): 0.318 | checkerboard well reading (growth) ([3]; 83 4 µg.mL-1, kanamycin A 8 µg.mL-1): 0.313 | checkerboard well reading (growth) ([3]; 83 4 µg.mL-1, kanamycin A 16 µg.mL-1): 0.286 | checkerboard well reading (growth) ([3]; 83 4 µg.mL-1, kanamycin A 32 µg.mL-1): 0.267 | checkerboard well reading (growth) ([3]; 83 4 µg.mL-1, kanamycin A 64 µg.mL-1): 0.243 | checkerboard well reading (growth) ([3]; 83 4 µg.mL-1, kanamycin A 128 µg.mL-1): 0.258 | checkerboard well reading (growth) ([3]; 83 8 µg.mL-1, kanamycin A 0 µg.mL-1): 0.402 | checkerboard well reading (growth) ([3]; 83 8 µg.mL-1, kanamycin A 2 µg.mL-1): 0.304 | checkerboard well reading (growth) ([3]; 83 8 µg.mL-1, kanamycin A 4 µg.mL-1): 0.300 | checkerboard well reading (growth) ([3]; 83 8 µg.mL-1, kanamycin A 8 µg.mL-1): 0.292 | checkerboard well reading (growth) ([3]; 83 8 µg.mL-1, kanamycin A 16 µg.mL-1): 0.282 | checkerboard well reading (growth) ([3]; 83 8 µg.mL-1, kanamycin A 32 µg.mL-1): 0.271 | checkerboard well reading (growth) ([3]; 83 8 µg.mL-1, kanamycin A 64 µg.mL-1): 0.244 | checkerboard well reading (growth) ([3]; 83 8 µg.mL-1, kanamycin A 128 µg.mL-1): 0.258 | checkerboard well reading (growth) ([3]; 83 16 µg.mL-1, kanamycin A 0 µg.mL-1): 0.581 | checkerboard well reading (growth) ([3]; 83 16 µg.mL-1, kanamycin A 2 µg.mL-1): 0.303 | checkerboard well reading (growth) ([3]; 83 16 µg.mL-1, kanamycin A 4 µg.mL-1): 0.295 | checkerboard well reading (growth) ([3]; 83 16 µg.mL-1, kanamycin A 8 µg.mL-1): 0.293 | checkerboard well reading (growth) ([3]; 83 16 µg.mL-1, kanamycin A 16 µg.mL-1): 0.274 | checkerboard well reading (growth) ([3]; 83 16 µg.mL-1, kanamycin A 32 µg.mL-1): 0.258 | checkerboard well reading (growth) ([3]; 83 16 µg.mL-1, kanamycin A 64 µg.mL-1): 0.242 | checkerboard well reading (growth) ([3]; 83 16 µg.mL-1, kanamycin A 128 µg.mL-1): 0.200 | checkerboard well reading (growth) ([3]; 83 32 µg.mL-1, kanamycin A 0 µg.mL-1): 0.378 | checkerboard well reading (growth) ([3]; 83 32 µg.mL-1, kanamycin A 2 µg.mL-1): 0.299 | checkerboard well reading (growth) ([3]; 83 32 µg.mL-1, kanamycin A 4 µg.mL-1): 0.294 | checkerboard well reading (growth) ([3]; 83 32 µg.mL-1, kanamycin A 8 µg.mL-1): 0.273 | checkerboard well reading (growth) ([3]; 83 32 µg.mL-1, kanamycin A 16 µg.mL-1): 0.281 | checkerboard well reading (growth) ([3]; 83 32 µg.mL-1, kanamycin A 32 µg.mL-1): 0.249 | checkerboard well reading (growth) ([3]; 83 32 µg.mL-1, kanamycin A 64 µg.mL-1): 0.215 | checkerboard well reading (growth) ([3]; 83 32 µg.mL-1, kanamycin A 128 µg.mL-1): 0.082 | checkerboard well reading (growth) ([3]; 83 64 µg.mL-1, kanamycin A 0 µg.mL-1): 0.357 | checkerboard well reading (growth) ([3]; 83 64 µg.mL-1, kanamycin A 2 µg.mL-1): 0.295 | checkerboard well reading (growth) ([3]; 83 64 µg.mL-1, kanamycin A 4 µg.mL-1): 0.275 | checkerboard well reading (growth) ([3]; 83 64 µg.mL-1, kanamycin A 8 µg.mL-1): 0.274 | checkerboard well reading (growth) ([3]; 83 64 µg.mL-1, kanamycin A 16 µg.mL-1): 0.256 | checkerboard well reading (growth) ([3]; 83 64 µg.mL-1, kanamycin A 32 µg.mL-1): 0.227 | checkerboard well reading (growth) ([3]; 83 64 µg.mL-1, kanamycin A 64 µg.mL-1): 0.165 | checkerboard well reading (growth) ([3]; 83 64 µg.mL-1, kanamycin A 128 µg.mL-1): 0.053 | checkerboard well reading (growth) ([3]; 83 128 µg.mL-1, kanamycin A 0 µg.mL-1): 0.433 | checkerboard well reading (growth) ([3]; 83 128 µg.mL-1, kanamycin A 2 µg.mL-1): 0.365 | checkerboard well reading (growth) ([3]; 83 128 µg.mL-1, kanamycin A 4 µg.mL-1): 0.303 | checkerboard well reading (growth) ([3]; 83 128 µg.mL-1, kanamycin A 8 µg.mL-1): 0.296 | checkerboard well reading (growth) ([3]; 83 128 µg.mL-1, kanamycin A 16 µg.mL-1): 0.283 | checkerboard well reading (growth) ([3]; 83 128 µg.mL-1, kanamycin A 32 µg.mL-1): 0.276 | checkerboard well reading (growth) ([3]; 83 128 µg.mL-1, kanamycin A 64 µg.mL-1): 0.204 | checkerboard well reading (growth) ([3]; 83 128 µg.mL-1, kanamycin A 128 µg.mL-1): 0.066 | Impact of 83 alone on bacterial growth ([3]; absence of antibiotics, 83 from 0 to 128 µg mL^−1 (585 µM)): no impact on bacterial growth | Kd [4]: 270 ± 50 nM | ΔH ([4]; ITC): -13.6 kcal/mol | inhibition at 100 µM [5]: 55% | IC50 [6]: 1230 ± 40 nM | inhibition at 100 µM ([7]; 100 µM of 83): 95% | Ki ([7]; Ki (µM), inhibition constant, ATP-competitive, 0-2 mM MgATP, 100 µM kanamycin A, global fitting): 0.39 ± 0.04 µM | Increase of latency ([8]; 1024 µg mL^−1 kanamycin A): 14 h | Increase of latency ([8]; 2048 µg mL^−1 kanamycin A): 18 h | Growth ([8]; 4096 µg mL^−1 kanamycin A, 250 and 500 µM 83, after 24 h): no growth was detected | Effect on growth kinetics ([8]; 256 and 512 µg mL^−1 kanamycin A, 500 µM 83, absence of imipenem): slowed growth kinetics | Toxicity of 83 alone on bacteria ([8]; up to 500 µM (109 µg mL^−1), no kanamycin A, 24 h): no toxicity
